# Measurements: patent publication US20060030585A1, “Tricyclic delta-opioid modulators” (priority 2004, published 2006)
# Where two headings read alike, the source gives them in different places.
# How the values were obtained:
# [1] = target: delta opioid receptor (Rattus norvegicus, UniProt P33533); experiment: Rat brain delta opioid receptor binding assay ([3H]DPDPE); details: Rat delta opioid receptor binding constant, rat forebrain membranes, ~4 nM [3H]DPDPE
# Procedure: Rat Brain Delta Opioid Receptor Binding Assay
# Procedure: Male, Sprague Dawley rats (150-250 g, VAF, Charles River, Kingston, N.Y.) were killed by CO2, and their brains removed and placed immediately in ice cold Tris HCl buffer (50 mM, pH 7.4). The forebrains were separated from the remainder of the brain by a coronal transection, beginning dorsally at the colliculi and passing ventrally through the midbrain-pontine junction. After dissection, the forebrains were homogenized in Tris buffer in a Teflon®-glass homogenizer. The homogenate was diluted to a concentration of 1 g of forebrain tissue per 80 mL Tris and centrifuged at 39,000×g for 10 min. The pellet was resuspended in the same volume of Tris buffer containing 5 mM MgCl2 with several brief pulses from a Polytron homogenizer. This particulate preparation was used for the delta opioid binding assays. Following incubation with the delta selective peptide ligand ˜4 nM [^3H]DPDPE at 25° C. for 2.5 h in a 96-well plate with total volume of 1 mL, the plate contents were filtered through Wallac filtermat B sheets on a Tomtec 96-well harvester. The filters were rinsed three times with 2 mL of 10 mM HEPES (pH 7.4), and dried in a 650 W microwave oven for 1.75 min twice. To each sample area 2×50 μL of Betaplate Scint scintillation fluid (LKB) was added and the radioactivity quantified on a LKB (Wallac) 1205 BetaPlate liquid scintillation counter.
# (§1) Analysis: The data from the scintillation counter were used to calculate either the % inhibition compared to control binding (when only a single concentration of test compound was evaluated) or a Ki value (when a range of concentrations was tested). Percent inhibition was calculated as: [(total dpm-test compound dpm)/(total dpm-nonspecific dpm)]*100. Kd and Ki values were calculated using GraphPad PRISM data analysis program.
# [2] = target: mu opioid receptor (Rattus norvegicus, UniProt P33535); experiment: Rat brain mu opioid receptor binding assay ([3H]DAMGO); details: Rat mu opioid receptor binding constant, rat forebrain membranes, ~0.8 nM [3H]DAMGO
# Chain of mu opioid receptor (P33535 whole entry): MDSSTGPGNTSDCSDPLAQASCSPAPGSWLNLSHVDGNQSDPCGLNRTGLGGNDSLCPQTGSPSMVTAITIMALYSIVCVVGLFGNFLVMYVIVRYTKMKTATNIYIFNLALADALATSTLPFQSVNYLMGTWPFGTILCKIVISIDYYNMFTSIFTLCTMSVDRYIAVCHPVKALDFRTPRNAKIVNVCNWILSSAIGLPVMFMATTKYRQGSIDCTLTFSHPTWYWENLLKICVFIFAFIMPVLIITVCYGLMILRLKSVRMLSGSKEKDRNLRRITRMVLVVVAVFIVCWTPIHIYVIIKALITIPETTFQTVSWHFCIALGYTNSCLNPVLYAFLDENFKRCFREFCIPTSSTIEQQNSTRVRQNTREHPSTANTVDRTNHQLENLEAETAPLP
# Procedure: Rat Brain Mu Opioid Receptor Binding Assay
# Procedure: Male, Sprague Dawley rats (150-250 g, VAF, Charles River, Kingston, N.Y.) were killed by CO2, and their brains removed and placed immediately in ice cold Tris HCl buffer (50 mM, pH 7.4). The forebrains were separated from the remainder of the brain by a coronal transection, beginning dorsally at the colliculi and passing ventrally through the midbrain-pontine junction. After dissection, the forebrains were homogenized in Tris buffer in a Teflon®-glass homogenizer. The homogenate was diluted to a concentration of 1 g of forebrain tissue per 80 mL Tris and centrifuged at 39,000×g for 10 min. The pellet was resuspended in the same volume of Tris buffer containing 5 mM MgCl2 with several brief pulses from a Polytron homogenizer. This particulate preparation was used for the delta opioid binding assays.
# as §1, with “concentrations” for “concentrations was”
# Chain of delta opioid receptor (P33533 whole entry): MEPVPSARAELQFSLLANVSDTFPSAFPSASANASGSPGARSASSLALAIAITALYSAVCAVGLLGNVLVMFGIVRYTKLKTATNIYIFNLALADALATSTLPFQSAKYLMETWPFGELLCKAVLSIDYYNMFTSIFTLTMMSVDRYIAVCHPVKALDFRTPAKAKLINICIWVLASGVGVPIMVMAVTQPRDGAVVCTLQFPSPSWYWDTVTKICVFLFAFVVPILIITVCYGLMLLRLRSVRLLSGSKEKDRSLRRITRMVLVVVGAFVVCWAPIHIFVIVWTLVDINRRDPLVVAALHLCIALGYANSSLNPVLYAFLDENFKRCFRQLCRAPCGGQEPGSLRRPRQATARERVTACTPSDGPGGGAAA
Compound,Ki ([1]; DOR Ki) [nM],Ki ([2]; MOR Ki) [nM],Ki ([1]; read-out: DOR Ki) [nM],Ki ([2]; read-out: MOR Ki) [nM]
"CN(CCO)C(=O)c1ccc2c(c1)Oc1ccccc1C2=C1CC2CCC(C1)N2 [Cpd 61, 9-(8-Aza-bicyclo[3.2.1]oct-3-ylidene)-9H-xanthene-3-carboxylic acid (2-hydroxy-ethyl)-methyl-amide]",6.25,876,,
O=C(NC1CCC(C(F)(F)F)CC1)c1ccc2c(c1)Oc1ccccc1C2=C1CC2CCC(C1)N2 (stereo not drawn) [Cpd 62],,,309,7400
CS(=O)(=O)Nc1cccc(-c2ccc3c(c2)Oc2ccccc2C3=C2CC3CCC(C2)N3)c1 [Cpd 63],161,5120,,
O=C(NCC(F)(F)F)c1ccc2c(c1)Oc1ccccc1C2=C1CC2CCC(C1)N2 [Cpd 64],52,411,,
COc1cccc(C2CCCN(C(=O)c3ccc4c(c3)Oc3ccccc3C4=C3CC4CCC(C3)N4)C2)c1 (stereo not drawn) [Cpd 65],88,317,,
CN(C(=O)c1ccc2c(c1)Oc1ccccc1C2=C1CC2CCC(C1)N2)c1ccc(F)cc1 [Cpd 66],93,935,,
CC(C)C[C@H](CO)NC(=O)c1ccc2c(c1)Oc1ccccc1C2=C1CC2CCC(C1)N2 [Cpd 67],360,1570,,
CN(C)C(=O)CN(C)C(=O)c1ccc2c(c1)Oc1ccccc1C2=C1CC2CCC(C1)N2 [Cpd 68],,,8.5,2390
O=C(O)c1ccc2c(c1)Oc1ccccc1C2=C1CC2CCC(C1)N2 [Cpd 72],,,216,1960
COC(=O)c1ccc2c(c1)Oc1ccccc1C2=C1CC2CCC(C1)N2 [Cpd 73],,,1010,6340
CCOC(=O)N1C2CCC1CC(=C1c3ccccc3Oc3cc(C(=O)N(C)CCO)ccc31)C2 [Cpd 75],,,4470,10000
COC(=O)c1ccc2c(c1)Sc1ccccc1C2=C1CC2CCC(C1)N2 [Cpd 76],,,370,4740
N#Cc1ccc2c(c1)Oc1ccccc1C2=C1CC2CCC(C1)N2 [Cpd 77],,,2710,2480
"COC(=O)c1ccc2c(c1)Oc1cc(C(=O)OC)ccc1C2=C1CC2CCC(C1)N2 [Cpd 78, 9-(8-Aza-bicyclo[3.2.1]oct-3-ylidene)-9H-xanthene-3,6-dicarboxylic acid dimethyl ester]",1150,7000,,
COc1cccc2c1Oc1cc(Br)ccc1C2=C1CC2CCC(C1)N2 [Cpd 79],192,4780,,
c1ccc2c(c1)Oc1cc(-c3nnn[nH]3)ccc1C2=C1CC2CCC(C1)N2 [Cpd 81],,,0.5,261
"c1ccc(Sc2ccc3c(c2)Sc2ccccc2C3=C2CC3CCC(C2)N3)cc1 [Cpd 83, 3-(3-Phenylsulfanyl-thioxanthen-9-ylidene)-8-aza-bicyclo[3.2.1]octane]",8510,> 10000,,
"Brc1ccc2c(c1)Sc1ccccc1C2=C1CC2CCC(C1)N2 [Cpd 84, 3-(3-Bromo-thioxanthen-9-ylidene)-8-aza-bicyclo[3.2.1]octane]",2900,> 10000,,
"N#Cc1ccc2c(c1)Sc1ccccc1C2=C1CC2CCC(C1)N2 [Cpd 85, 9-(8-Aza-bicyclo[3.2.1]oct-3-ylidene)-9H-thioxanthene-3-carbonitrile]",629,2310,,
O=c1[nH]c(-c2ccc3c(c2)Oc2ccccc2C3=C2CC3CCC(C2)N3)ns1 [Cpd 95],,,159,4930
CC(C)(CO)NC(=O)c1ccc2c(c1)Oc1ccccc1C2=C1CC2CCC(C1)N2 [Cpd 97],,,266,1900
COc1cccc2c1Oc1cc(-c3cnc4ccccc4c3)ccc1C2=C1CC2CCC(C1)N2 [Cpd 104],,,246,1710
COc1cccc2c1Oc1cc(-c3ccoc3)ccc1C2=C1CC2CCC(C1)N2 [Cpd 105],,,88,497

Compound,Ki ([1]; DOR Ki) [nM],Ki ([2]; MOR Ki) [nM],Ki ([1]; read-out: DOR Ki) [nM],Ki ([2]; read-out: MOR Ki) [nM]
COc1cccc2c1Oc1cc(-c3ccsc3)ccc1C2=C1CC2CCC(C1)N2 [Cpd 106],,,281,2740
COc1cccc2c1Oc1cc(-c3ccncc3)ccc1C2=C1CC2CCC(C1)N2 [Cpd 107],,,106,597
Cn1ccc(-c2ccc3c(c2)Oc2ccccc2C3=C2CC3CCC(C2)N3)n1 [Cpd 111],220,2640,,
"c1cncc(-c2ccc3c(c2)Sc2ccccc2C3=C2CC3CCC(C2)N3)c1 [Cpd 112, 3-(3-Pyridin-3-yl-thioxanthen-9-ylidene)-8-aza-bicyclo[3.2.1]octane]",481,1010,,
CC(=O)Nc1ccccc1-c1ccc2c(c1)Sc1ccccc1C2=C1CC2CCC(C1)N2 [Cpd 113],90,1520,,
CN1C2CCC1CC(=C1c3ccccc3Sc3cc(-c4cccnc4)ccc31)C2 [Cpd 114],108,109,,
c1cncc(-c2ccc3c(c2)Sc2ccccc2C3=C2CC3CCC(C2)N3Cc2ncc[nH]2)c1 [Cpd 115],91,60,,
"c1cncc(-c2ccc3c(c2)Sc2ccccc2C3=C2CC3CCC(C2)N3Cc2ccoc2)c1 [Cpd 116, 8-Furan-3-ylmethyl-3-(3-pyridin-3-yl-thioxanthen-9-ylidene)-8-aza-bicyclo[3.2.1]octane]",93,,,113
c1ccc(CN2C3CCC2CC(=C2c4ccccc4Sc4cc(-c5cccnc5)ccc42)C3)nc1 [Cpd 117],95,97,,
CC(=O)Nc1ccccc1-c1ccc2c(c1)Sc1ccccc1C2=C1CC2CCC(C1)N2C [Cpd 118],,,612,2070
CC(=O)Nc1ccccc1-c1ccc2c(c1)Sc1ccccc1C2=C1CC2CCC(C1)N2Cc1ncc[nH]1 [Cpd 119],,,142,349
CC(=O)Nc1ccccc1-c1ccc2c(c1)Sc1ccccc1C2=C1CC2CCC(C1)N2Cc1ccoc1 [Cpd 120],54,,,183
CC(=O)Nc1ccccc1-c1ccc2c(c1)Sc1ccccc1C2=C1CC2CCC(C1)N2Cc1ccccn1 [Cpd 121],3.7,,,137
CC(C)(C)OC(=O)N1C2CCC1CC(=C1c3ccccc3Oc3cc(C(=O)NCCO)ccc31)C2 [Cpd 122],,,> 10000,> 10000
O=C(NCCO)c1ccc2c(c1)Oc1ccccc1C2=C1CC2CCC(C1)N2 [Cpd 123],,,106,1020
O=C(N1C2CCC1CC(=C1c3ccccc3Oc3cc(-c4cccnc4)ccc31)C2)C(F)(F)F [Cpd 128],,,> 10000,> 10000
O=C(N1C2CCC1CC(=C1c3ccccc3Oc3cc(-c4cccnc4)ccc31)C2)C(F)(F)F [Cpd 129],,,> 10000,> 10000
CC(=O)Nc1ccccc1-c1ccc2c(c1)Oc1ccccc1C2=C1CC2CCC(C1)N2C(=O)C(F)(F)F [Cpd 130],,,> 10000,> 10000
CC(=O)Nc1ccccc1-c1ccc2c(c1)Oc1ccccc1C2=C1CC2CCC(C1)N2C(=O)C(F)(F)F [Cpd 131],,,> 10000,> 10000
"COc1cccc2c1Oc1cc(-c3noc(=O)[nH]3)ccc1C2=C1CC2CCC(C1)N2 [Cpd 132, 3-[9-(8-Aza-bicyclo[3.2.1]oct-3-ylidene)-5-methoxy-9H-xanthen-3-yl]-4H-[1,2,4]oxadiazol-5-one]",0.32,254,,
"COc1cccc2c1Oc1cc(-c3noc(=S)[nH]3)ccc1C2=C1CC2CCC(C1)N2 [Cpd 133, 3-[9-(8-Aza-bicyclo[3.2.1]oct-3-ylidene)-5-methoxy-9H-xanthen-3-yl]-4H-[1,2,4]oxadiazole-5-thione]",2.37,371,,
"O=c1[nH]c(-c2ccc3c(c2)Oc2c(O)cccc2C3=C2CC3CCC(C2)N3)no1 [Cpd 134, 3-[9-(8-Aza-bicyclo[3.2.1]oct-3-ylidene)-5-hydroxy-9H-xanthen-3-yl]-4H-[1,2,4]oxadiazol-5-one]",0.12,2,,
